Tests used:
[1] = target: Vitamin K-dependent protein C (Homo sapiens, UniProt P04070); experiment: Inhibitory activity against activated protein C
[2] = target: Coagulation factor X (Homo sapiens, UniProt P00742); experiment: In vitro inhibitory activity against coagulation factor X.
[3] = target: Prothrombin (Homo sapiens, UniProt P00734); experiment: Inhibitory activity against thrombin.
[4] = target: Plasminogen (Homo sapiens, UniProt P00747); experiment: Inhibitory activity against plasmin.
[5] = target: Serine protease 1 (Homo sapiens, UniProt P07477); experiment: Inhibitory activity against trypsin.
[6] = target: Tissue-type plasminogen activator (Homo sapiens, UniProt P00750); experiment: Inhibitory activity against tissue type plasminogen activator.
[7] = species on record: Homo sapiens; experiment: Concentration required to double the lag time of maximum thrombin generation in human plasma-based thrombin generation assay; format: functional

Sequence of Vitamin K-dependent protein C (P04070 43-197 limits assumed): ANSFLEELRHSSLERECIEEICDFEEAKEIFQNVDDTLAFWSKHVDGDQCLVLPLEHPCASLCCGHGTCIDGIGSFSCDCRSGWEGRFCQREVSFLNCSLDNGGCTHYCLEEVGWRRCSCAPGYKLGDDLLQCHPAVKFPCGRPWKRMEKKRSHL
Sequence of Vitamin K-dependent protein C (P04070 212-461 limits assumed): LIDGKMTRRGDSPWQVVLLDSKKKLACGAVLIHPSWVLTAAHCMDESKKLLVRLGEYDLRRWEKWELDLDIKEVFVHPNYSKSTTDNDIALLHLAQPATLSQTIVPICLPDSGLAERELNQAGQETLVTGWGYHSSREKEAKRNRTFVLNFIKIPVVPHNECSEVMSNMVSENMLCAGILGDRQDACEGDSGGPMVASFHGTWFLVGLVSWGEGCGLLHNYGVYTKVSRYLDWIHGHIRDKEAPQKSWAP
Sequence of Tissue-type plasminogen activator (P00750 whole entry): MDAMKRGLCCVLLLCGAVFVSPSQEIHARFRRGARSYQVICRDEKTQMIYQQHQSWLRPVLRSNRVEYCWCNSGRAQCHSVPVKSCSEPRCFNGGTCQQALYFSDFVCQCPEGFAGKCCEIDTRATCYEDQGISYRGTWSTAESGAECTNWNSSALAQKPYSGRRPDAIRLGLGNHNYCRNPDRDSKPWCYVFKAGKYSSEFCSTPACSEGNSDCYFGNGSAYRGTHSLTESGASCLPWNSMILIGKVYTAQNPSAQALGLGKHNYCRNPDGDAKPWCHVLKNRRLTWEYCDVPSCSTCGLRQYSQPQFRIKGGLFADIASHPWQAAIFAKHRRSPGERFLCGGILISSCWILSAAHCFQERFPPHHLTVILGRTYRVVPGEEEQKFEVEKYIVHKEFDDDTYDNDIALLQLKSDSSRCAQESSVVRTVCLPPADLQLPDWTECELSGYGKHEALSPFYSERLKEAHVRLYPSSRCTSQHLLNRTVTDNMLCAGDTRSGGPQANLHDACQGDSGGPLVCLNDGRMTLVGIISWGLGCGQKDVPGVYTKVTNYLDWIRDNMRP
Sequence of Coagulation factor X (P00742 41-179 limits assumed): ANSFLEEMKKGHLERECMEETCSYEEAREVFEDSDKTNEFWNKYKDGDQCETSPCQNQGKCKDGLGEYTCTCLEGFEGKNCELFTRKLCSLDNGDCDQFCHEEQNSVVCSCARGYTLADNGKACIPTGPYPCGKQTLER
Sequence of Coagulation factor X (P00742 235-488 limits assumed): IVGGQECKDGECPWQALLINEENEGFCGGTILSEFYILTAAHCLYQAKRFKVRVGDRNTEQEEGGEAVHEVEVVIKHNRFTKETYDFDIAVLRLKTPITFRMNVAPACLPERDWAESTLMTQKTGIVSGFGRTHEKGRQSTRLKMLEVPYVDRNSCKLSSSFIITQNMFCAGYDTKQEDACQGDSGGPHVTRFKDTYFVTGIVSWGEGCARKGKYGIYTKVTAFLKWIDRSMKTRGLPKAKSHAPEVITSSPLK
Sequence of Serine protease 1 (P07477 whole entry): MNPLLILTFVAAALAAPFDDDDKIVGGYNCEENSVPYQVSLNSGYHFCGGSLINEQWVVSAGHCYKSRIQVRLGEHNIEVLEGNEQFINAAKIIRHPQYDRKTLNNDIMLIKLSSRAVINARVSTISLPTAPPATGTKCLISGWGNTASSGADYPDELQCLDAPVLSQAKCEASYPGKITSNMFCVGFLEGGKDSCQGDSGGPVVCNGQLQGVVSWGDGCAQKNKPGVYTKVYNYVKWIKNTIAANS
Sequence of Plasminogen (P00747 97-580 limits assumed): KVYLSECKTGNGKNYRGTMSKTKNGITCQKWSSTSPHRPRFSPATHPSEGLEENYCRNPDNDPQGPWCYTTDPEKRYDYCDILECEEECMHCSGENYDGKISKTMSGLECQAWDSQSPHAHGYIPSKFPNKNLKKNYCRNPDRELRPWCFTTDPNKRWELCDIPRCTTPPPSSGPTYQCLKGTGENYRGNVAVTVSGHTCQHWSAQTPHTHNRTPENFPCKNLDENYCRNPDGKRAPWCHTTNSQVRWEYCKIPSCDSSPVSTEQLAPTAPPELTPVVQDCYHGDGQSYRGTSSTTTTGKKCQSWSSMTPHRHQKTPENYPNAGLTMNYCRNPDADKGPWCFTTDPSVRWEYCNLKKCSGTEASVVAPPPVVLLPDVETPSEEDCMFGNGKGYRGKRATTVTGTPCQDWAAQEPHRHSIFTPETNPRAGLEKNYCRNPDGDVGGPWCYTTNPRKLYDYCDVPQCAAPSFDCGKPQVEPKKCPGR
Sequence of Plasminogen (P00747 581-810 limits assumed): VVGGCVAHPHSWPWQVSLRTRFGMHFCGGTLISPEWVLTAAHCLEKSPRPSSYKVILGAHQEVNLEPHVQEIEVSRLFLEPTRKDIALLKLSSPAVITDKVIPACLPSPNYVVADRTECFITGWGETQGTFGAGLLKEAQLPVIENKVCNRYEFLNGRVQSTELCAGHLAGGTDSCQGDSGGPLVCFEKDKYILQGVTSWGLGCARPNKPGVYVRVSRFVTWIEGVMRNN

SMILES | IC50 [1] | IC50 [2] | IC50 [3] | IC50 [4] | IC50 [5] | IC50 [6] | Activity [7]
CN(C)CCN(C)Cc1ccc(C(=O)Nc2ccc(Cl)cc2C(=O)Nc2ccc(Cl)cn2)cc1 | > 11 µM | 0.0069 µM | > 11 µM | > 11 µM | > 11 µM | > 11 µM | –
NC1=NCCCCN1Cc1ccc(C(=O)Nc2ccc(Cl)cc2C(=O)Nc2ccc(Cl)cn2)cc1 | > 11 µM | 0.0063 µM | > 11 µM | > 11 µM | > 11 µM | > 11 µM | –
O=C(Nc1ccc(Cl)cc1C(=O)Nc1ccc(Cl)cn1)c1ccc(CN2CCC(O)CC2)cc1 | > 11 µM | 0.136 µM | > 11 µM | > 11 µM | > 11 µM | > 11 µM | –
CC(=N)N(C)CCN(C)Cc1ccc(C(=O)Nc2ccc(Cl)cc2C(=O)Nc2ccc(Cl)cn2)cc1 | > 11 µM | 0.0011 µM | > 11 µM | > 11 µM | > 11 µM | > 11 µM | –
CCN(CC)Cc1ccc(C(=O)Nc2ccc(Cl)cc2C(=O)Nc2ccc(Cl)cn2)cc1 | > 11 µM | 0.035 µM | > 11 µM | > 11 µM | > 11 µM | > 11 µM | –
NCc1ccc(C(=O)Nc2ccc(Cl)cc2C(=O)Nc2ccc(Cl)cn2)cc1 | > 11 µM | 0.01 µM | > 11 µM | > 11 µM | > 11 µM | > 11 µM | –
CNCCN(C)Cc1ccc(C(=O)Nc2ccc(Cl)cc2C(=O)Nc2ccc(Cl)cn2)cc1 | > 11 µM | 0.0068 µM | > 11 µM | > 11 µM | > 11 µM | > 11 µM | –
O=C(Nc1ccc(Cl)cc1C(=O)Nc1ccc(Cl)cn1)c1ccc(CN2CCNCC2)cc1 | > 11 µM | 0.017 µM | > 11 µM | > 11 µM | > 11 µM | > 11 µM | –
NC1=NCCCN1Cc1ccc(C(=O)Nc2ccc(Cl)cc2C(=O)Nc2ccc(Cl)cn2)cc1 | > 11 µM | 0.0038 µM | > 11 µM | > 11 µM | > 11 µM | > 11 µM | –
CCOC(=O)CN(C)Cc1ccc(C(=O)Nc2ccc(Cl)cc2C(=O)Nc2ccc(Cl)cn2)cc1 | > 11 µM | 0.176 µM | > 11 µM | > 11 µM | > 11 µM | > 11 µM | –
CN(CC(=O)O)Cc1ccc(C(=O)Nc2ccc(Cl)cc2C(=O)Nc2ccc(Cl)cn2)cc1 | > 11 µM | 0.156 µM | > 11 µM | > 11 µM | > 11 µM | > 11 µM | –
CN1CCN(Cc2ccc(C(=O)Nc3ccc(Cl)cc3C(=O)Nc3ccc(Cl)cn3)cc2)CC1 | > 11 µM | 0.015 µM | > 11 µM | > 11 µM | > 11 µM | > 11 µM | –
CN(Cc1ccc(C(=O)Nc2ccc(Cl)cc2C(=O)Nc2ccc(Cl)cn2)cc1)C1=NCCS1 | > 11 µM | 0.01 µM | > 11 µM | > 11 µM | > 11 µM | > 11 µM | –
CN(CCN(C)C(=N)N)Cc1ccc(C(=O)Nc2ccc(Cl)cc2C(=O)Nc2ccc(Cl)cn2)cc1 | > 11 µM | 0.002 µM | > 11 µM | > 11 µM | > 11 µM | > 11 µM | –
N=C(N)NCc1ccc(C(=O)Nc2ccc(Cl)cc2C(=O)Nc2ccc(Cl)cn2)cc1 | > 11 µM | 0.0014 µM | > 11 µM | > 11 µM | > 11 µM | > 11 µM | –
CN(Cc1ccc(C(=O)Nc2ccc(Cl)cc2C(=O)Nc2ccc(Cl)cn2)cc1)C1=NCCN1 | > 11 µM | 0.002 µM | > 11 µM | > 11 µM | > 11 µM | > 11 µM | –
CN(Cc1ccc(C(=O)Nc2ccc(Cl)cc2C(=O)Nc2ccc(Cl)cn2)cc1)C1=NCCO1 | > 11 µM | 0.0015 µM | > 11 µM | > 11 µM | > 11 µM | > 11 µM | –
NC1CCN(Cc2ccc(C(=O)Nc3ccc(Cl)cc3C(=O)Nc3ccc(Cl)cn3)cc2)CC1 | > 11 µM | 0.015 µM | > 11 µM | > 11 µM | > 11 µM | > 11 µM | –
NCc1ccccc1-c1ccc(C(=O)Nc2ccc(Cl)cc2C(=O)Nc2ccc(Cl)cn2)cc1 | – | 0.0013 µM | – | – | – | – | >5 µM
O=C(Nc1ccc(Cl)cc1C(=O)Nc1ccc(Cl)cn1)c1ccc(CN2CCN=C2S)cc1 | > 11 µM | 0.035 µM | > 11 µM | > 11 µM | > 11 µM | > 11 µM | –
O=C(Nc1ccc(Cl)cc1C(=O)Nc1ccc(Cl)cn1)c1ccc(CN2CCCCC2)cc1 | > 11 µM | 0.015 µM | > 11 µM | > 11 µM | > 11 µM | > 11 µM | –
CC(=O)NNCc1ccc(C(=O)Nc2ccc(Cl)cc2C(=O)Nc2ccc(Cl)cn2)cc1 | > 11 µM | 0.04 µM | > 11 µM | > 11 µM | > 11 µM | > 11 µM | –
CC(=N)NCc1ccc(C(=O)Nc2ccc(Cl)cc2C(=O)Nc2ccc(Cl)cn2)cc1 | > 11 µM | 0.0036 µM | > 11 µM | > 11 µM | > 11 µM | > 11 µM | –
CN(C)C1=NCCN1Cc1ccc(C(=O)Nc2ccc(Cl)cc2C(=O)Nc2ccc(Cl)cn2)cc1 | > 11 µM | 0.0013 µM | > 11 µM | > 11 µM | > 11 µM | > 11 µM | –
C[N+]1(Cc2ccc(C(=O)Nc3ccc(Cl)cc3C(=O)Nc3ccc(Cl)cn3)cc2)CCCC1 | > 11 µM | 0.0023 µM | > 11 µM | > 11 µM | > 11 µM | > 11 µM | –
C/N=C(/NC)N(C)Cc1ccc(C(=O)Nc2ccc(Cl)cc2C(=O)Nc2ccc(Cl)cn2)cc1 | > 11 µM | 0.0008 µM | > 11 µM | > 11 µM | > 11 µM | > 11 µM | –

Further molecules by falling IC50 [2], results first:

IC50 [1] | IC50 [2] | IC50 [3] | IC50 [4] | IC50 [5] | IC50 [6] | SMILES | Activity [7]
> 11 µM | 0.552 µM | > 11 µM | > 11 µM | > 11 µM | > 11 µM | O=C(Nc1ccc(Cl)cc1C(=O)Nc1ccc(Cl)cn1)c1ccc(CN2CCCC2=O)cc1 | –
> 11 µM | 0.23 µM | > 11 µM | > 11 µM | > 11 µM | > 11 µM | O=C(Nc1ccc(Cl)cc1C(=O)Nc1ccc(Cl)cn1)c1ccc(CN2CCC(C(=O)O)CC2)cc1 | –
> 11 µM | 0.171 µM | > 11 µM | > 11 µM | > 11 µM | > 11 µM | CCOC(=O)C1CCN(Cc2ccc(C(=O)Nc3ccc(Cl)cc3C(=O)Nc3ccc(Cl)cn3)cc2)CC1 | –
> 11 µM | 0.14 µM | > 11 µM | > 11 µM | > 11 µM | > 11 µM | O=C(Nc1ccc(Cl)cc1C(=O)Nc1ccc(Cl)cn1)c1ccc(CN2CCOCC2)cc1 | –
> 11 µM | 0.082 µM | > 11 µM | > 11 µM | > 11 µM | > 11 µM | CN(CCO)Cc1ccc(C(=O)Nc2ccc(Cl)cc2C(=O)Nc2ccc(Cl)cn2)cc1 | –
> 11 µM | 0.076 µM | > 11 µM | > 11 µM | > 11 µM | > 11 µM | NC(=O)C1CCN(Cc2ccc(C(=O)Nc3ccc(Cl)cc3C(=O)Nc3ccc(Cl)cn3)cc2)CC1 | –
> 11 µM | 0.053 µM | > 11 µM | > 11 µM | > 11 µM | > 11 µM | COCCN(C)Cc1ccc(C(=O)Nc2ccc(Cl)cc2C(=O)Nc2ccc(Cl)cn2)cc1 | –
> 11 µM | 0.04 µM | > 11 µM | > 11 µM | > 11 µM | > 11 µM | NNCc1ccc(C(=O)Nc2ccc(Cl)cc2C(=O)Nc2ccc(Cl)cn2)cc1 | –
> 11 µM | 0.03 µM | > 11 µM | > 11 µM | > 11 µM | > 11 µM | O=C(Nc1ccc(Cl)cc1C(=O)Nc1ccc(Cl)cn1)c1ccc(CN2CCNC2=O)cc1 | –
> 11 µM | 0.016 µM | > 11 µM | > 11 µM | > 11 µM | > 11 µM | O=C(Nc1ccc(Cl)cc1C(=O)Nc1ccc(Cl)cn1)c1ccc(CN2CCCC2)cc1 | –
> 11 µM | 0.012 µM | > 11 µM | > 11 µM | > 11 µM | > 11 µM | CCN(C)Cc1ccc(C(=O)Nc2ccc(Cl)cc2C(=O)Nc2ccc(Cl)cn2)cc1 | –
> 11 µM | 0.011 µM | > 11 µM | > 11 µM | > 11 µM | > 11 µM | CN(Cc1ccc(C(=O)Nc2ccc(Cl)cc2C(=O)Nc2ccc(Cl)cn2)cc1)C(=N)c1ccccc1 | –
> 11 µM | 0.007 µM | > 11 µM | > 11 µM | > 11 µM | > 11 µM | CNCc1ccc(C(=O)Nc2ccc(Cl)cc2C(=O)Nc2ccc(Cl)cn2)cc1 | –
> 11 µM | 0.0058 µM | > 11 µM | > 11 µM | > 11 µM | > 11 µM | O=C(Nc1ccc(Cl)cc1C(=O)Nc1ccc(Cl)cn1)c1ccc(C[n+]2ccccc2)cc1 | –
> 11 µM | 0.005 µM | > 11 µM | > 11 µM | > 11 µM | > 11 µM | CC(=N)N1CCN(Cc2ccc(C(=O)Nc3ccc(Cl)cc3C(=O)Nc3ccc(Cl)cn3)cc2)CC1 | –
> 11 µM | 0.0035 µM | > 11 µM | > 11 µM | > 11 µM | > 11 µM | CNC1=NCCN1Cc1ccc(C(=O)Nc2ccc(Cl)cc2C(=O)Nc2ccc(Cl)cn2)cc1 | –

From ChEMBL document CHEMBL1147578, “Design, synthesis, and SAR of anthranilamide-based factor Xa inhibitors with improved functional activity” (Bioorg Med Chem Lett, 2004)
